Measured values from patent US20070025930A1, “Dibenzoilmethane derivative compounds, the use thereof in the form of photoactivable solar filters and cosmetic compositions containing said compounds” (UNIVERSITE PAUL SABATIER TOULOUSE 3, priority 2003, published 2007).

Legend:
[1] = Tests of stability towards UV radiation: water-in-oil preparation on a quartz slide, UVA absorbance monitored under solar irradiation; assay type: physicochemical; details: for Variation in the absorbance at 356 nm: water-in-oil preparation on quartz slide; for decrease in UVA absorbance: preparation with 1% by mass of screening agents; for decrease of the absorbance at 356 nm: mean UV flux 4 mW/cm^2; for photostability compared with Parsol 1789: solar irradiation of preparations
Text: By way of example, the changes under irradiation of a base preparation (water-in-oil emulsion) containing the compounds obtained in the above examples, i.e. compound C10 and compound O10, are compared with that of the same preparation containing Parsol 1789 (mass % equivalent for each screening agent).
By way of example, the chosen preparations may be composed as follows:
Glycasil L 0.19%, butyl paraben 0.3%, beeswax 4%, PEG-30 dipolyhydroxystearate 3%, dicapryl carbonate 10%, polyglyceryl-3-diisostearate 1.5%, water 78.64%, xanthan gum 1%, Na2EDTA 0.2%, NaCI 1%; methyl paraben 0.17%
To this common base is added, depending on the case, the compounds C10 or O10 or Parsol 1789 in equivalent mass %. 15 to 20 mg of these preparations are spread onto a quartz slide and the UVA absorbance of the slide is monitored over time under solar irradiation (in the month of June at 43° latitude north between 13.00 h and 16.00 h, mean flux of the solar UV radiation: 4 mW/cm^2, Oriel 70380 UV Radiometer—response between 280 nm and 400 nm with a maximum at 370 nm)). The absorbance at 356 nm of the plate with Parsol 1789 decreases by 51% in 1 hour and by 73% in 2 hours. In the same time, the plates that received compound O10 have an absorbance that increases by 16% in 1 hour and 19% in 2 hours. […]

[2] = background statement on the reference screening agent; cited from earlier work
[3] = UV absorption (absorption maximum, molar extinction coefficient) in solution; assay type: physicochemical
Text: As an illustration of these ultraviolet-absorbing capacities, measurements were taken for two dibenzoylmethane derivatives according to the invention: • for a compound of formula (I) in which R1, R′1, R2, R′2, R3, R′3, R4, R′4 and R′5 each represent a hydrogen atom and R5 represents a saturated linear acyclic carbon-based chain containing 10 carbon atoms, the absorption maximum is (in solution in acetonitrile) at 263 nm with a molar extinction coefficient of 20 000 I.cm^−1.mol^−1. This compound will be referred to hereinbelow as compound C10; • for a compound of formula (I) in which R1, R′1, R2, R′2, R3, R′3, R4, R′4 and R5 each represent a hydrogen atom and R′5 represents a saturated linear acyclic carbon-based chain containing 10 carbon atoms, the absorption maximum (in solution in acetonitrile) is at 302 nm with a molar extinction coefficient of 17 000 I.cm^−1.mol^−1.
This is likewise the case for compound C10. Furthermore, in organized medium, these two compounds, subjected to ultraviolet radiation, undergo a shift of their maximum absorbance wavelength from UVB to UVA, thus causing the same effect as organization of the system. As a result, the maximum shift of the absorption bands towards UVA is obtained by placing these compounds in organized medium under irradiation, as is the case for an antisun cosmetic preparation under the normal conditions of its use. Irradiation of the preparation amplifies the phenomenon induced by the medium in which the compounds are present. There are therefore two screening molecules present, the absorbing power of which appears in its entirety only when they are subjected to ultraviolet exposure, in an organized medium. The protection capacity of a preparation containing them should thus increase during exposure, rather than decrease, which is the case for preparations containing Parsol 1789 as sole UV-screening agent. This increase in the absorbance at the start of exposure makes it possible to maintain a maximum level of protection for longer.
The NMR spectra were acquired using a Bruker ARX 400 MHz machine. […]

Variation in the absorbance at 356 nm ([1]; Irradiation 1 hour solar UV)	Variation in the absorbance at 356 nm ([1]; Irradiation 2 hours solar UV)	decrease in UVA absorbance ([1]; after 2 hours solar irradiation) [%]	decrease of the absorbance at 356 nm ([1]; in 1 hour solar irradiation) [%]	decrease in UVA absorbance ([1]; in 1 hour solar irradiation) [%]	decrease of the absorbance at 356 nm ([1]; in 2 hours solar irradiation) [%]	absorption maximum ([3]; in solution in acetonitrile) [nm]	molar extinction coefficient ([3]; in solution in acetonitrile, at the absorption maximum)	absorption maximum in the UVA range (solvatochromy) ([3]; organized solvents, e.g. micellar solutions of sodium dodecyl sulfate)	absorbance change during the first hour of exposure to sunlight ([1]; first hour of solar irradiation)	decrease of the absorbance during the second hour ([1]; relative to the maximum achieved after 1 hour of irradiation) [%]	photostability compared with Parsol 1789 [1]	SMILES	maximum absorption efficacy (wavelength) [2]	absorbance after 2 hours of exposure to sunlight versus initial absorbance ([1]; 2 hours of solar irradiation, compared with before irradiation)
−51%	−73%	73	51	51	73	–	–	–	–	–	–	COc1ccc(C(=O)CC(=O)c2ccc(C(C)(C)C)cc2)cc1 [Parsol 1789, 4-tert-butyl-4′-methoxydibenzoylmethane, reference compound]	about 340 nm	–
+400%	+264%	–	–	–	–	263	20 000 I.cm^−1.mol^−1	about 360 nm	increases greatly	27	much more photostable than Parsol 1789	CCCCCCCCCCC(C(=O)c1ccc(OC)cc1)C(=O)c1ccc(C(C)(C)C)cc1 (centres unmarked) [compound C10, 3-(4-tert-butylphenyl)-2-decanyl-1-(4-methoxyphenyl)propane-1,3-dione]	–	remains markedly higher than its initial absorbance
–	–	–	–	–	–	–	–	–	–	–	much more photostable than Parsol 1789	CCCCCCCCCCO/C(=C\C(=O)c1ccc(OC)cc1)c1ccc(C(C)(C)C)cc1 [compound O10, 3-(4-tert-butylphenyl)-3-decanoxy-1-(4-methoxy-phenyl) prop-2-ene-1-one]	–	–
